Like-named read-outs stand apart in the source and are kept apart here.
How the values were obtained:
PC9/ER cells = assay: Cell viability assay (CellTiter-Glo 2.0), erlotinib-resistant PC9/ER cells; type: cell-based; settings: Homo sapiens, PC-9/ER; Table 2; 72 h drug treatment, EGFR TKI resistant cells, combination with EGFR TKI; read-out: Relative cell viability; IC50 PC9ER
Text: (§1) To explore c-MET and AXL mechanisms of EGFR TKI resistance, resistant cells of the EGFR TKI hypersensitive EGFR exon 19 mutant NSCLC cell line, HCC827 and PC9 were generated by exposing these cells to increasing concentrations of EGFR TKI for over 3 months.
(§2) Gefitinib-resistant cells were referred to as HCC827/GR. […] Osimertinib-resistant cells were referred to as HCC827/OR.

HCC827/ER cells = assay: Cell viability assay (CellTiter-Glo 2.0), erlotinib-resistant HCC827/ER cells; type: cell-based, human; settings: Homo sapiens, HCC827ER, Table 2, 72 h drug treatment, EGFR TKI resistant cells, combination with EGFR TKI, read-out: Relative cell viability
Text: as §1, §2

HCC827/GR cells = assay: Cell viability assay (CellTiter-Glo 2.0), gefitinib-resistant HCC827/GR cells; type: cell-based, human; settings: Homo sapiens, read-out: Relative cell viability, IC50 HCC827GR
Text: as §1
The human cell line HCC827 was purchased from the American Type Culture Collection (Manassas, VA), and the PC9 cell line was obtained from RIKEN Cell Bank (Ibaraki, Japan). […] Gefitinib-resistant cells were referred to as HCC827/GR. […] Osimertinib-resistant cells were referred to as HCC827/OR.
(§3) Cell viability assays were carried out by plating 1,000 cells per well of HCC827 or PC9 resistant cells, respectively, into white transparent-bottom 384-well plates. The cells were treated with each TKI across a 10-dose range from 1 nM to 10,000 nM. After 72 h of drug treatment, cell viability was measured using the CellTiter-Glo 2.0 assay (Promega, Madison, WI).
as §3

HCC827/OR cells = assay: Cell viability assay (CellTiter-Glo 2.0), osimertinib-resistant HCC827/OR cells; type: cell-based, human; settings: Homo sapiens, HCC827; Table 2; 72 h drug treatment, EGFR TKI resistant cells, combination with EGFR TKI; read-out: Relative cell viability; IC50 HCC827OR
Text: as §1, §2

[1] = HCC827, Table 2, 72 h drug treatment, EGFR TKI resistant cells, combination with EGFR TKI

Row | Compound | IC50 (PC9/ER cells) [nM] | IC50 (HCC827/ER cells) [nM] | IC50 (HCC827/GR cells; [1]) [nM] | IC50 (HCC827/OR cells) [nM] | IC50 (HCC827/GR cells; HCC827, 72 h) [nM]
1 | CC(C)n1cc(C(=O)Nc2ccc(Oc3ccnc(N)c3C#CC(=O)N3CCNCC3)c(F)c2)c(=O)n(-c2ccc(F)cc2)c1=O [Example 1, N-(4-(2-amino-3-(3-oxo-3-(piperazin-1-yl)prop-1-ynyl)pyridin-4-yloxy)-3-fluorophenyl)-3-(4-fluorophenyl)-1-isopropyl-2,4-dioxo-1,2,3,4-tetrahydropyrimidine-5-carboxamide] | < 10 | < 10 | < 10 | < 10 | 
2 | COCCN1CCN(C(=O)C#Cc2c(Oc3ccc(NC(=O)c4cn(C(C)C)c(=O)n(-c5ccc(F)cc5)c4=O)cc3F)ccnc2N)CC1 [Example 2, N-(4-(2-amino-3-(3-(4-(2-methoxyethyl)piperazin-1-yl)-3-oxoprop-1-ynyl)pyridin-4-yloxy)-3-fluorophenyl)-3-(4-fluorophenyl)-1-isopropyl-2,4-dioxo-1,2,3,4-teterahydropyrimidine-5-carboxamide] | < 10 | < 10 | < 10 | < 10 | 
3 | CC(C)n1cc(C(=O)Nc2ccc(Oc3ccnc(N)c3/C=C/C(=O)N3CCNCC3)c(F)c2)c(=O)n(-c2ccc(F)cc2)c1=O [Example 3, (E)-N-(4-(2-amino-3-(3-oxo-3-(piperazin-1-yl)prop-1-enyl)pyridin-4-yloxy)-3-fluorophenyl)-3-(4-fluorophenyl)-1-isopropyl-2,4-dioxo-1,2,3,4-tetrahydropyrimidine-5-carboxamide] | < 1000 | < 100 | < 100 | < 100 | 
4 | COCCN1CCN(C(=O)/C=C/c2c(Oc3ccc(NC(=O)c4cn(C(C)C)c(=O)n(-c5ccc(F)cc5)c4=O)cc3F)ccnc2N)CC1 [Example 4, (E)-N-(4-(2-amino-3-(3-(4-(2-methoxyethyl)piperazin-1-yl)-3-oxoprop-1-enyl)pyridin-4-yloxy)-3-fluorophenyl)-3-(4-fluorophenyl)-1-isopropyl-2,4-dioxo-1,2,3,4-tetrahydropyrimidine-5-carboxamide] | < 1000 | < 10 | < 10 | < 10 | 
5 | CC(C)n1cc(C(=O)Nc2ccc(Oc3ccnc(N)c3C#N)c(F)c2)c(=O)n(-c2ccc(F)cc2)c1=O [Example 5, N-(4-(2-amino-3-cyanopyridin-4-yloxy)-3-fluorophenyl)-3-(4-fluorophenyl)-1-isopropyl-2,4-dioxo-1,2,3,4-tetrahydropyrimidine-5-carboxamide] | < 1000 | < 10 | < 100 | < 100 | 
6 | CC(C)n1cc(C(=O)Nc2ccc(Oc3ccnc(N)c3Cl)c(F)c2)c(=O)n(-c2ccc(F)cc2)c1=O [Example 6, N-(4-(2-amino-3-chloropyridin-4-yloxy)-3-fluorophenyl)-3-(4-fluorophenyl)-1-isopropyl-2,4-dioxo-1,2,3,4-tetrahydropyrimidine-5-carboxamide] |  |  |  |  | < 100
7 | CC(C)n1cc(C(=O)Nc2ccc(Oc3ccnc(N)c3-c3cnn(C)c3)c(F)c2)c(=O)n(-c2ccc(F)cc2)c1=O [Example 7, N-(4-(2-amino-3-(1-methyl-1H-pyrazol-4-yl)pyridin-4-yloxy)-3-fluoropehynl)-1-isopropyl-2,4-dioxo-1,2,3,4-tetrahydropyrimidine-5-carboxamide] | < 1000 | < 10 | < 10 | < 10 | 
8 | CC(C)n1cc(C(=O)Nc2ccc(Oc3ccnc(N)c3C#Cc3ccccn3)c(F)c2)c(=O)n(-c2ccc(F)cc2)c1=O [Example 9, N-(4-(2-amino-3-(pyridin-2-ylethnyl)pyridin-4-yloxy)-3-fluorophenyl)-3-(4-fluorophenyl)-1-isopropyl-2,4-dioxo-1,2,3,4-tetrahydropyrimidine-5-carboxamide] | > 10000 | < 100 | < 100 | < 100 | 
9 | CC(C)n1cc(C(=O)Nc2ccc(Oc3ccnc(N)c3-c3ccc(Oc4ccccc4)cc3)c(F)c2)c(=O)n(-c2ccc(F)cc2)c1=O [Example 10] | < 100 | < 1000 | < 1000 | < 1000 | 
10 | Cc1noc(C)c1-c1c(Oc2ccc(NC(=O)c3cn(C(C)C)c(=O)n(-c4ccc(F)cc4)c3=O)cc2F)ccnc1N [Example 11] | < 10000 | < 10000 | < 10000 | < 10000 | 
11 | CCCn1cc(-c2c(Oc3ccc(NC(=O)c4cn(C(C)C)c(=O)n(-c5ccc(F)cc5)c4=O)cc3F)ccnc2N)cn1 [Example 12, N-(4-(2-amino-3-(1-propyl-1H-pyrazol-4-yl)pyridine-4-yloxy)-3-fluorophenyl)-3-(4-fluorophenyl)-1-isopropyl-2,4-dioxo-1,2,3,4-tetrahydropyrimidine-5-carboxamide] | < 1000 | < 100 | < 100 | < 10 | 
12 | CCCn1cc(C#Cc2c(Oc3ccc(NC(=O)c4cn(C(C)C)c(=O)n(-c5ccc(F)cc5)c4=O)cc3F)ccnc2N)cn1 [Example 13, N-(4-(2-amino-3-((1-propyl-1H-pyrazol-4-yl)ethynyl)pyridin-4-yloxy)-3-fluorophenyl)-3-(4-fluorophenyl)-1-isopropyl-2,4-dioxo-1,2,3,4-tetrahydropyrimidine-5-carboxamide] | < 10 | < 10 | < 10 | < 10 | 

More lines, main results first:

Row | IC50 (PC9/ER cells) [nM] | IC50 (HCC827/ER cells) [nM] | IC50 (HCC827/GR cells; [1]) [nM] | IC50 (HCC827/OR cells) [nM] | Compound | IC50 (HCC827/GR cells; HCC827, 72 h) [nM]
13 | < 10 | < 10 | < 100 | < 10 | CC(C)n1cc(C(=O)Nc2ccc(Oc3ccnc(N)c3C#CC(=O)N3CCOCC3)c(F)c2)c(=O)n(-c2ccc(F)cc2)c1=O [Example 14, N-(4-(2-amino-3-(3-morpholino-3-oxoprop-1-ynyl)pyridin-4-yloxy)-3-fluorophenyl)-3-(4-fluorophenyl)-1-isopropyl-2,4-dioxo-1,2,3,4-tetrahydropyrimidine-5-carboxamide] | 
14 | < 10 | < 100 | < 100 | < 10 | CC(C)n1cc(C(=O)Nc2ccc(Oc3ccnc(N)c3C#CC3CCNCC3)c(F)c2)c(=O)n(-c2ccc(F)cc2)c1=O [Example 15, N-(4-(2-amino-3-(piperidin-4-ylethynyl)pyridin-4-yloxy)-3-fluorophenyl)-3-(4-fluorophenyl)-1-isopropyl-2,4-dioxo-1,2,3,4-tetrahydropyrimidine-5-carboxamide] | 
15 | < 10 | < 10 | < 10 | < 10 | COCCN1CCC(C#Cc2c(Oc3ccc(NC(=O)c4cn(C(C)C)c(=O)n(-c5ccc(F)cc5)c4=O)cc3F)ccnc2N)CC1 [Example 16] | 
16 | < 100 | < 100 | < 100 | < 100 | CC(C)n1cc(C(=O)Nc2ccc(Oc3ccnc(N)c3C#CCN3CCNCC3)c(F)c2)c(=O)n(-c2ccc(F)cc2)c1=O [Example 17] | 
17 | < 100 | < 10 | < 100 | < 10 | COCCN1CCN(CC#Cc2c(Oc3ccc(NC(=O)c4cn(C(C)C)c(=O)n(-c5ccc(F)cc5)c4=O)cc3F)ccnc2N)CC1 [Example 18, N-(4-(2-amino-3-(3-(4-(2-methoxyethyl)piperazin-1-yl)prop-1-ylny)pyridin-4-yloxy)-3-fluorophenyl)-3-(4-fluorophenyl)-1-isopropyl-2,4-dioxo-1,2,3,4-tetrahydropyrimidine-5-carboxamide] | 
18 | < 100 | < 10 | < 100 | < 100 | CC(C)n1cc(C(=O)Nc2ccc(Oc3ccnc(N)c3C#CC(C)(C)N3CCNCC3)c(F)c2)c(=O)n(-c2ccc(F)cc2)c1=O [Example 19, N-(4-(2-amino-3-(3-methyl-3-(piperazin-1-yl)but-1-ynyl)pyridin-4-yloxy)-3-fluorophenyl)-3-(4-fluorophenyl)-1-isopropyl-2,4-dioxo-1,2,3,4-tetrahydropyridmidine-5-carboxamide] | 
19 | < 10 | < 10 | < 10 | < 10 | COCCN1CCN(C(C)(C)C#Cc2c(Oc3ccc(NC(=O)c4cn(C(C)C)c(=O)n(-c5ccc(F)cc5)c4=O)cc3F)ccnc2N)CC1 [Example 20, N-(4-(2-amino-3-(3-(4-(2-methoxyethyl)piperazin-1-yl)-3-methylbut-1-ynyl)pyridin-4-yloxy)-3-fluorophenyl)-3-(4-fluorophenyl)-1-isopropyl-2,4-dioxo-1,2,3,4-tetrahydropyrimidine-5-carboxamide] | 
20 | < 1000 | < 1000 | < 100 | < 1000 | COCCN1CCN(C(=O)CCc2c(Oc3ccc(NC(=O)c4cn(C(C)C)c(=O)n(-c5ccc(F)cc5)c4=O)cc3F)ccnc2N)CC1 [Example 21, N-(4-(2-amino-3-(3-(4-(2-methoxyethyl)piperazin-1-yl)-3-oxopropyl)pyridin-4-yloxy)-3-fluorophenyl)-3-(4-fluorophenyl)-1-isopropyl-2,4-dioxo-1,2,3,4-tetrahydropyrimidine-5-carboxamide] | 
